“And” between values parts separate entries of the source, which are not always exact repeats. Identical values can stand only once. Where only a bound is given, the exact number is not on record here.

Experiment [1] relates to human cervical tumor cell line HeLa (ATCC CCL-2). The experiment is described as follows: SAC-Formation - Paclitaxel-Induced Assay. Format: cell-based. The note with it: Homo sapiens, HeLa, 24 h, HeLa cells, paclitaxel 0.05 μM, test range 0.005 μM-20 μM, read-out: IC50 [mol/l] SAC-Formation - Paclitaxel-Induced Assay. In outline:
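HeLa cells incubated overnight at 37° C, then given paclitaxel (0.05 μM final) plus test compound (0.005–20 μM, 0.5% DMSO) together for 24 h at 37° C. Fixed cells stained for phospho-histone H3 Ser10 (mitotic cells) and Hoechst 33342 (cell count); imaging-derived mitotic index fitted by four-parameter Hill equation.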

Experiment [2] concerns the target T1, catalytic domain of human Bub1 (amino acids 704-1085) (Homo sapiens, UniProt O43683).
T1 construct: catalytic domain of human Bub1 (amino acids 704-1085); His6 (N); made in house; host or cells: insect cells (Hi5)
The experiment is described as follows: Bub1 kinase assay (TR-FRET). Format: biochemical. The conditions noted are these: 10 μM ATP, avg, read-out: Bub1 avg (IC50 [mol/l]). From the text: Bub1-inhibitory activity of compounds of the present invention was quantified employing the Bub1 TR-FRET assay as described in the following paragraphs.
N-terminally His6-tagged recombinant catalytic domain of human Bub1 (amino acids 704-1085), expressed in insect cells (Hi5) and purified by Ni-NTA affinity chromatography and subsequent size exclusion chromatography, was used as enzyme. As substrate for the kinase reaction the biotinylated peptide biotin-Ahx-VLLPKKSFAEPG (C-terminus in amid form) was used which can be purchased e.g. form the company Biosyntan (Berlin, Germany).
For the assay 50 nl of a 100fold concentrated solution of the test compound in DMSO was pipetted into a black low volume 384well microtiter plate (Greiner Bio-One, Frickenhausen, Germany), 2 μl of a solution of Bub1 in aqueous assay buffer [50 mM Tris/HCl pH 7.5, 10 mM magnesium chloride (MgCl2), 200 mM potassium chloride (KCl), 1.0 mM dithiothreitol (DTT), 0.1 mM sodium ortho-vanadate, 1% (v/v) glycerol, 0.01% (w/v) bovine serum albumine (BSA), 0.005% (v/v) Trition X-100 (Sigma), 1× Complete EDTA-free protease inhibitor mixture (Roche)] were added and the mixture was incubated for 15 min at 22° C. to allow pre-binding of the test compounds to the enzyme before the start of the kinase reaction. Then the kinase reaction was started by the addition of 3 μl of a solution of adenosine-tri-phosphate (ATP, 16.7 μM=>final conc. in the 5 μl assay volume is 10 μM) and substrate (1.67 μM=>final conc. in the 5 μl assay volume is 1 μM) in assay buffer and the resulting mixture was incubated for a reaction time of 60 min at 22° C. The concentration of Bub1 was adjusted depending of the activity of the enzyme lot and was chosen appropriate to have the assay in the linear range, typical concentrations were in the range of 200 ng/ml. The reaction was stopped by the addition of 5 μl of a solution of TR-FRET detection reagents (0.2 μM streptavidine-XL665 [Cisbio Bioassays, Codolet, France] and 1 nM anti-phosho-Serine antibody [Merck Millipore, cat. #35-001] and 0.4 nM LANCE EU-W1024 labeled anti-mouse IgG antibody [Perkin-Elmer, product no. AD0077, as an alternative a Terbium-cryptate-labeled anti-mouse IgG antibody from Cisbio Bioassays can be used]) in an aqueous EDTA-solution (50 mM EDTA, 0.2% (w/v) bovine serum albumin in 100 mM HEPES pH 7.5).
The resulting mixture was incubated 1 h at 22° C. to allow the formation of complex between the phosphorylated biotinylated peptide and the detection reagents. Subsequently the amount of phosphorylated substrate was evaluated by measurement of the resonance energy transfer from the Eu-chelate to the streptavidine-XL. Therefore, the fluorescence emissions at 620 nm and 665 nm after excitation at 350 nm was measured in a TR-FRET reader, e.g. a Rubystar or Pherastar (both from BMG Labtechnologies, Offenburg, Germany) or a Viewlux (Perkin-Elmer). The ratio of the emissions at 665 nm and at […] was taken as the measure for the amount of phosphorylated substrate. The data were normalised (enzyme reaction without inhibitor=0% inhibition, all other assay components but no enzyme=100% inhibition).
On the technique in general: TR-FRET usually uses a lanthanide donor and a delayed reading to cut background.

T1 sequence (O43683 704-1085): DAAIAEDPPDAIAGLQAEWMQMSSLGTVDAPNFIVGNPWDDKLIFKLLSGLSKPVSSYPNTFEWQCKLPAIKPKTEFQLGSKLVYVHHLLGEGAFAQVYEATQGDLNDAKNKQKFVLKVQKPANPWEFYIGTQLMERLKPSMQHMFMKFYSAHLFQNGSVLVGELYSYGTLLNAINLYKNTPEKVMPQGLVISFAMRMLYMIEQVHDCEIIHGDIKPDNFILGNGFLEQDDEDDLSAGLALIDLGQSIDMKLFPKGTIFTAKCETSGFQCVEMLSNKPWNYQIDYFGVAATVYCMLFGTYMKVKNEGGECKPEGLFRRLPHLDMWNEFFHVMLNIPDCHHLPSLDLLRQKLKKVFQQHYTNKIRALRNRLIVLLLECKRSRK

Regarding `Cc1nsc(Nc2cnc3ccccc3n2)c1C(=O)Nc1ccc(NC2CC2)nc1` [Example 172, N-[6-(cyclopropylamino)pyridin-3-yl]-3-methyl-5-(quinoxalin-2-ylamino)-1,2-thiazole-4-carboxamide], the IC50 was 2.3 µM in experiment [1]; > 20 µM and 18 µM in experiment [2].
As to `Cc1nsc(Nc2cnc(C(F)(F)F)cn2)c1C(=O)Nc1ccc(OCC2CCN(CC(F)F)C2)nc1` (stereo not shown) [Example 122, N-(6-{[1-(2,2-difluoroethyl)pyrrolidin-3-yl]methoxy}pyridin-3-yl)-3-methyl-5-{[5-(trifluoromethyl)pyrazin-2-yl]amino}-1,2-thiazole-4-carboxamide], the IC50 in experiment [1] is 0.03 µM; in experiment [2], at least 20 µM.
The matching figures for `Cc1nsc(Nc2cnc3ccccc3n2)c1C(=O)Nc1ccc(C(=O)NC2CN(C(=O)OC(C)(C)C)CC(F)(F)C2)cc1` (stereo not shown) [Example 158, tert-butyl 3,3-difluoro-5-{[4-({[3-methyl-5-(quinoxalin-2-ylamino)-1,2-thiazol-4-yl]carbonyl}amino)benzoyl]amino} piperidine-1-carboxylate]: 2.8 µM and above 20 µM.
In the case of `Cc1nsc(Nc2cnc3ccccc3n2)c1C(=O)Nc1cccc(C(=O)N[C@@H](CCC(N)=O)C(=O)O)c1` [Example 103, N^2-[3-({[3-Methyl-5-(quinoxalin-2-ylamino)-1,2-thiazol-4-yl]carbonyl}amino)-benzoyl]glutamine], the results for the IC50 in experiment [1] and in experiment [2] were 20 µM and at least 20 µM, respectively.
With `Cc1nsc(Nc2cnc(C(F)(F)F)cn2)c1C(=O)Nc1ccc(O[C@@H]2CCN(CCC(F)(F)F)C[C@@H]2F)nc1` [Example 139, N-(6-{[(3S,4R)-3-fluoro-1-(3,3,3-trifluoropropyl)piperidin-4-yl]oxy}pyridin-3-yl)-3-methyl-5-{[5-(trifluoromethyl)pyrazin-2-yl]amino}-1,2-thiazole-4-carboxamide], the IC50 in experiment [1] is 0.089 µM; in experiment [2], above 20 µM.
The matching figures for `CC(=O)Nc1cc(NC(=O)c2c(C)nsc2Nc2ccc(C#N)cn2)ccc1F` [Example 152, N-(3-acetamido-4-fluorophenyl)-5-[(5-cyanopyridin-2-yl)amino]-3-methyl-1,2-thiazole-4-carboxamide]: 8.8 µM and above 20 µM.
Consider `Cc1nsc(Nc2cnc(C(F)(F)F)cn2)c1C(=O)Nc1ccc(OCC2CCN(CCF)C2)nc1` (stereo not shown) [Example 121, N-(6-{[1-(2-fluoroethyl)pyrrolidin-3-yl]methoxy}pyridin-3-yl)-3-methyl-5-{[5-(trifluoromethyl)pyrazin-2-yl]amino}-1,2-thiazole-4-carboxamide], for which the IC50 was 0.043 µM in experiment [1] and at least 20 µM in experiment [2].
The matching figures for `Cc1nsc(Nc2cc(C#N)ccn2)c1C(=O)Nc1cccc(C(=O)N2CCCC2)c1` [Example 114, 5-[(4-Cyanopyridin-2-yl)amino]-3-methyl-N-[3-(pyrrolidin-1-ylcarbonyl)phenyl]-1,2-thiazole-4-carboxamide]: 1.3 µM and at least 20 µM.
For the molecule `Cc1nsc(Nc2ccc(C#N)cn2)c1C(=O)Nc1ccc(NC2CCCN(C(=O)OC(C)(C)C)C2)nc1` (stereo not shown) [Example 171, tert-butyt 3-({5-[({5-[(5-cyanopyridin-2-yl)amino]-3-methyl-1,2-thiazol-4-yl}carbonyl)amino]pyridin-2-yl}amino)piperidine-1-carboxylate], the IC50 was 4 µM in experiment [1] and above 20 µM in experiment [2].
The matching figures for `Cc1nsc(Nc2cnc3ccccc3n2)c1C(=O)Nc1ccc(C(=O)N2CCCN(CC(F)(F)F)CC2)cc1` [Example 159]: 10 µM and above 20 µM.
The matching figures for `Cc1nsc(Nc2cnc3ccccc3n2)c1C(=O)Nc1cccc(-c2nnc(C(C)(C)C)o2)c1` [Example 107, N-[3-(5-tert-Butyl-1,3,4-oxadiazol-2-yl)phenyl]-3-methyl-5-(quinoxalin-2-ylamino)-1,2-thiazole-4-carboxamide]: 0.21 µM and at least 20 µM.
Take `Cc1nsc(Nc2ccc(C#N)cn2)c1C(=O)Nc1cccc(S(C)(=O)=O)c1` [Example 150, 5-[(5-cyanopyridin-2-yl)amino]-3-methyl-N-[3-(methylsulfonyl)phenyl]-1,2-thiazole-4-carboxamide]: the IC50 in experiment [1] is 0.25 µM; in experiment [2], above 20 µM.
As for `Cc1noc(-c2cccc(NC(=O)c3c(C)nsc3Nc3cnc4ccccc4n3)c2)n1` [Example 106, 3-Methyl-N-[3-(3-methyl-1,2,4-oxadiazol-5-yl)phenyl]-5-(quinoxalin-2-ylamino)-1,2-thiazole-4-carboxamide], the IC50 in experiment [1] was 0.13 µM; in experiment [2], at least 20 µM.
The matching figures for `Cc1nsc(Nc2cnc3ccccc3n2)c1C(=O)Nc1cccc(C(=O)N2CCN(C)CC2)c1` [Example 102, 3-Methyl-N-{3-[(4-methylpiperazin-1-yl)carbonyl]phenyl}-5-(quinoxalin-2-ylamino)-1,2-thiazole-4-carboxamide]: 7.5 µM and 19 µM.
Take `Cc1nsc(Nc2cnc(C(F)(F)F)cn2)c1C(=O)Nc1ccc(OC2CCN(CC(F)F)CC2)c(F)c1` [Example 164, N-(4-{[1-(2,2-difluoroethyl)piperidin-4-yl]oxy}-3-fluorophenyl)-3-methyl-5-{[5-(trifluoromethyl)pyrazin-2-yl]amino}-1,2-thiazole-4-carboxamide]: the IC50 in experiment [1] is 0.14 µM; in experiment [2], above 20 µM.
The matching figures for `CCCCN1CC[C@H](Oc2ccc(NC(=O)c3c(C)nsc3Nc3cnc(C(F)(F)F)cn3)cn2)[C@H](F)C1` [Example 148, N-(6-{[(3R,4S)-1-butyl-3-fluoropiperidin-4-yl]oxy}pyridin-3-yl)-3-methyl-5-{[5-(trifluoromethyl)pyrazin-2-yl]amino}-1,2-thiazole-4-carboxamide]: 0.31 µM and above 20 µM.
Take `Cc1nsc(Nc2cnc3ccccc3n2)c1C(=O)Nc1cccc(C(=O)N2CCNCC2)c1` [Example 101, 3-Methyl-N-[3-(piperazin-1-ylcarbonyl)phenyl]-5-(quinoxalin-2-ylamino)-1,2-thiazole-4-carboxamide]: the IC50 in experiment [1] worked out at 20 µM; in experiment [2], 7.6 µM.
The matching figures for `Cc1nsc(Nc2cnc3ccccc3n2)c1C(=O)Nc1cccc(C(=O)N[C@H](C(=O)O)[C@@H](C)OC(C)(C)C)c1` [Example 104, O-tert-Butyl-N-[3-({[3-methyl-5-(quinoxalin-2-ylamino)-1,2-thiazol-4-yl]-carbonyl}amino)benzoyl]threonine]: 3.2 µM and at least 20 µM.
As to `Cc1nsc(Nc2cncc(C(F)(F)F)n2)c1C(=O)Nc1ccc(OCC2CCN(C(=O)OC(C)(C)C)C2)nc1` (stereo not shown) [Example 110, tert-Butyl 3-{[(5-{[(3-methyl-5-{[6-(trifluoromethyl)pyrazin-2-yl]amino}-1,2-thiazol-4-yl)carbonyl]amino}pyridin-2-yl)oxy]methyl}pyrrolidine-1-carboxylate], the IC50 in experiment [1] was 0.15 µM; in experiment [2], at least 20 µM.
Consider `Cc1nsc(Nc2ccc(C#N)cn2)c1C(=O)Nc1ccc(N[C@@H](C)C(=O)OC(C)(C)C)nc1` [Example 170, tert-butyl N-{5-[({5-[(5-cyanopyridin-2-yl)amino]-3-methyl-1,2-thiazol-4-yl}carbonyl)amino]pyridin-2-yl}alaninate], for which the IC50 in experiment [1] is 1.1 µM; in experiment [2], above 20 µM.

(Values after patent publication US20170334899A1, “AMINO-SUBSTITUTED ISOTHIAZOLES” (Bayer Pharma Aktiengesellschaft, priority 2014, published 2017).)
